Key:
pigweed [1] = assay: Test A preemergence; format: in vivo, Amaranthus retroflexus; details: Preemergence, 1000 g ai/ha; 0 to 100 scale, 0 no effect, 100 complete control
Method in brief: (§1)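 Seeds were sown in a loam soil–sand blend and given a directed soil spray preemergence; postemergence plants at 2–10 cm, one- to two-leaf stage, were sprayed with compound in non-phytotoxic solvent with surfactant. After about 10 days in a greenhouse, injury was visually rated against untreated controls (0 = no effect, 100 = complete control).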

barnyardgrass [2] = assay: Test A preemergence; format: in vivo, Echinochloa crus-galli; details: Preemergence, 1000 g ai/ha; 0 to 100 scale, 0 no effect, 100 complete control
Method in brief: as §1

crabgrass, large [3] = assay: Test A preemergence; format: in vivo, Digitaria sanguinalis; details: Preemergence, 1000 g ai/ha; 0 to 100 scale, 0 no effect, 100 complete control
Method in brief: as §1

crabgrass, large [4] = assay: Test A postemergence; format: in vivo, Digitaria sanguinalis; details: Postemergence, 1000 g ai/ha; visual rating after approx. 10 days, 0 to 100 scale (0 no effect, 100 complete control)
From the text: (§2) Seeds of plant species selected from barnyardgrass (Echinochloa crus-galli), kochia (Kochia scoparia), common ragweed (Ambrosia elation), Italian ryegrass (Lolium multiflorum), crabgrass, large (large crabgrass, Digitaria sanguinalis), foxtail, giant (giant foxtail, Setaria faberii), morningglory (Ipomoea spp.), pigweed (redroot pigweed, Amaranthus retroflexus), velvetleaf (Abutilon theophrasti), wheat (Triticum aestivum), and corn (Zea mays) were planted into a blend of loam soil and sand and treated preemergence with a directed soil spray using test chemicals formulated in a non-phytotoxic solvent mixture which included a surfactant.
(§3) At the same time, plants selected from these crop and weed species and also blackgrass (Alopecurus myosuroides), and galium (catchweed bedstraw, Galium aparine) were planted in pots containing the same blend of loam soil and sand and treated with postemergence applications of test chemicals formulated in the same manner. Plants ranged in height from 2 to 10 cm and were in the one- to two-leaf stage for the postemergence treatment. Treated plants and untreated controls were maintained in a greenhouse for approximately 10 days, after which time all treated plants were compared to untreated controls and visually evaluated for injury. Plant response ratings, summarized in Table A, are based on a 0 to 100 scale where 0 is no effect and 100 is complete control. A dash (-) response means no test result.

corn [5] = assay: Test A preemergence; format: in vivo, Zea mays; details: Preemergence, 1000 g ai/ha; 0 to 100 scale, 0 no effect, 100 complete control
Method in brief: as §1

foxtail, giant [6] = assay: Test A preemergence; format: in vivo, Setaria faberii; details: Preemergence, 1000 g ai/ha; 0 to 100 scale, 0 no effect, 100 complete control
From the text: as §2, §3

pigweed [7] = assay: Test A postemergence; format: in vivo, Amaranthus retroflexus; details: Postemergence, 1000 g ai/ha; visual rating after approx. 10 days, 0 to 100 scale (0 no effect, 100 complete control)
Method in brief: as §1

wheat [8] = assay: Test A postemergence; format: in vivo, Triticum aestivum; details: Postemergence, 1000 g ai/ha; visual rating after approx. 10 days, 0 to 100 scale (0 no effect, 100 complete control)
From the text: as §2, §3

barnyardgrass [9] = assay: Test A postemergence; format: in vivo, Echinochloa crus-galli; details: Postemergence, 1000 g ai/ha; visual rating after approx. 10 days, 0 to 100 scale (0 no effect, 100 complete control)
Method in brief: as §1

morningglory [10] = assay: Test A postemergence; format: in vivo, Ipomoea spp.; details: Postemergence, 1000 g ai/ha; visual rating after approx. 10 days, 0 to 100 scale (0 no effect, 100 complete control)
Method in brief: as §1

corn [11] = assay: Test A postemergence; format: in vivo, Zea mays; details: Postemergence, 1000 g ai/ha; visual rating after approx. 10 days, 0 to 100 scale (0 no effect, 100 complete control)
From the text: as §2, §3

velvetleaf [12] = assay: Test A postemergence; format: in vivo, Abutilon theophrasti; details: Postemergence, 1000 g ai/ha; visual rating after approx. 10 days, 0 to 100 scale (0 no effect, 100 complete control)
From the text: as §2, §3

foxtail, giant [13] = assay: Test A postemergence; format: in vivo, Setaria faberii; details: Postemergence, 1000 g ai/ha; visual rating after approx. 10 days, 0 to 100 scale (0 no effect, 100 complete control)
Method in brief: as §1

morningglory [14] = assay: Test A preemergence; format: in vivo, Ipomoea spp.; details: Preemergence, 1000 g ai/ha; 0 to 100 scale, 0 no effect, 100 complete control
From the text: as §2, §3

velvetleaf [15] = assay: Test A preemergence; format: in vivo, Abutilon theophrasti; details: Preemergence, 1000 g ai/ha; 0 to 100 scale, 0 no effect, 100 complete control
Method in brief: as §1

wheat [16] = assay: Test A preemergence; format: in vivo, Triticum aestivum; details: Preemergence, 1000 g ai/ha; 0 to 100 scale, 0 no effect, 100 complete control
Method in brief: as §1

SMILES | Pigweed plant response rating (pigweed [1]) | Barnyardgrass plant response rating (barnyardgrass [2]) | Crabgrass, Large plant response rating (crabgrass, large [3]) | Crabgrass, Large plant response rating (crabgrass, large [4]) | Corn plant response rating (corn [5]) | Foxtail, Giant plant response rating (foxtail, giant [6]) | Pigweed plant response rating (pigweed [7]) | Wheat plant response rating (wheat [8]) | Barnyardgrass plant response rating (barnyardgrass [9]) | Morningglory plant response rating (morningglory [10]) | Corn plant response rating (corn [11]) | Velvetleaf plant response rating (velvetleaf [12]) | Foxtail, Giant plant response rating (foxtail, giant [13]) | Morningglory plant response rating (morningglory [14]) | Velvetleaf plant response rating (velvetleaf [15]) | Wheat plant response rating (wheat [16])
CCc1cc(C(=O)NCC(F)(F)F)nn1Cc1cccc(C(F)(F)F)c1 [Compound 18] | 90 | 80 | 100 | 90 | 30 | 100 | 90 | 40 | 50 | 100 | 70 | 100 | 90 | 70 | 100 | 40
CCNC(=O)c1cc(CC)n(Cc2cccc(OC(F)(F)F)c2)n1 [Compound 19] | 100 | 90 | 100 | 80 | 30 | 100 | 100 | 20 | 60 | 90 | 20 | 100 | 70 | 90 | 80 | 10
CSc1cc(C(=O)NC2CC2)nn1Cc1cccc(C(F)(F)F)c1 [Compound 22] | 0 | 0 | 10 | 50 | 0 | 20 | 60 | 20 | 30 | 100 | 10 | 80 | 40 | 0 | 0 | 0
CCNC(=O)c1cc(SC)n(Cc2cccc(C(F)(F)F)c2)n1 [Compound 23] | 0 | 0 | 0 | 30 | 0 | 0 | 40 | 0 | 10 | 100 | 20 | 30 | 30 | 0 | 0 | 0
C=CCNC(=O)c1cc(CC)n(Cc2cccc(C(F)(F)F)c2)n1 [Compound 44] | 10 | 10 | 50 | 20 | 20 | 50 | 50 | 20 | 10 | 70 | 20 | 40 | 50 | 20 | 0 | 0
CCc1cc(C(=O)NC)nn1Cc1cccc(C(F)(F)F)c1 [Compound 45] | 10 | 10 | 20 | 40 | 0 | 20 | 60 | 10 | 10 | 90 | 20 | 30 | 70 | 10 | 0 | 0
CCc1cc(C(=O)NCC(C)(C)C)nn1Cc1cccc(C(F)(F)F)c1 [Compound 46] | 0 | 10 | 10 | 30 | 0 | 20 | 40 | 20 | 10 | 70 | 20 | 70 | 60 | 20 | 0 | 0
CCc1cc(C(=O)NCCOC)nn1Cc1cccc(C(F)(F)F)c1 [Compound 48] | 0 | 10 | 10 | 10 | 0 | 10 | 10 | 0 | 10 | 50 | 30 | 10 | 20 | 20 | 0 | 0
CCc1cc(C(=O)NCC(C)C)nn1Cc1cccc(C(F)(F)F)c1 [Compound 49] | 50 | 30 | 90 | 30 | 0 | 100 | 50 | 30 | 20 | 100 | 30 | 50 | 100 | 30 | 0 | 0
CCCCNC(=O)c1cc(CC)n(Cc2cccc(C(F)(F)F)c2)n1 [Compound 52] | 30 | 10 | 50 | 30 | 0 | 70 | 50 | 30 | 20 | 40 | 30 | 40 | 30 | 30 | 10 | 0
CCc1cc(C(=O)NCCC(F)(F)F)nn1Cc1cccc(OC(F)(F)F)c1 [Compound 55] | 80 | 10 | 100 | 50 | 0 | 90 | 70 | 10 | 10 | 100 | 20 | 90 | 50 | 20 | 10 | 0
